Read-outs that look alike come from different tables or passages of the source.
Legend:
HLA-A*0301 = HLA-A*0301 (Homo sapiens, UniProt P04439); experiment: Cell-based HLA class I-peptide concentration-based stability assay (TAP-deficient mono-allelic 721.221 cells); settings: HLA A*03 mono-allelic TAP-deficient 721.221 cells, relative anti-HLA MFI; for Relative HLA MFI (10 uM): peptide 10 uM; for Relative HLA MFI (100 uM): peptide 100 uM
Description: (§1) Controls without peptide, but the corresponding concentration of DMSO, were performed in parallel.

[1] = test system: HLA class-I alleles A*0101, A*0201, A*0301, A*2402, B*0702, B*0801, B*1402, B*1501, B*2705, B*3501, B*3901, B*4001, B*4402, B*5201, B*5701, B*5801, B*8101 …; assay type: cell-based, human; settings: relative anti-HLA MFI; for Relative HLA MFI (10 uM): peptide 10 uM; for Relative HLA MFI (100 uM): peptide 100 uM
HLA-B*5701 = HLA-B*5701 (Homo sapiens, UniProt P01889, D201E/D98Y/E176V/E187L/E204Q/E69M/E70A/G107R/I90N/K202T/L105A/L119I/N104I/N87E/Q89R/Q94S/R106L/R155S/R180L/R86G/S101N/S121V/S35A/S48A/T118I/V36M/Y140S/Y91M); experiment: Cell-based HLA class I-peptide concentration-based stability assay (TAP-deficient mono-allelic 721.221 cells); settings: section B*57, TAP-deficient mono-allelic 721.221 cells, relative anti-HLA MFI; for Relative HLA MFI (10 uM): peptide 10 uM; for Relative HLA MFI (100 uM): peptide 100 uM
Description: as §1

HLA-B*0702 = HLA-B*0702 (Homo sapiens, UniProt P01889); experiment: as above; settings: HLA B*07 mono-allelic TAP-deficient 721.221 cells, relative anti-HLA MFI; for Relative HLA MFI (10 uM): peptide 10 uM; for Relative HLA MFI (100 uM): peptide 100 uM
Description: as §1

[2] = HLA A*02 mono-allelic TAP-deficient 721.221 cells
[3] = HLA B*08 mono-allelic TAP-deficient 721.221 cells
[4] = HLA B*15 mono-allelic TAP-deficient 721.221 cells
[5] = HLA B*39 mono-allelic TAP-deficient 721.221 cells
[6] = HLA B*35 mono-allelic TAP-deficient 721.221 cells
[7] = HLA B*40 mono-allelic TAP-deficient 721.221 cells
[8] = section B*58, TAP-deficient mono-allelic 721.221 cells

Q: Which results are given for AIFQSSMTK [ATK9]?
A: Relative HLA MFI (10 uM) (HLA-A*0301): 0.3479; Relative HLA MFI (100 uM) (HLA-A*0301): 0.6619

Q: Which results are given for AIIRILQQL [AL9]?
A: Relative HLA MFI (10 uM) [1, 2]: 0.2439; Relative HLA MFI (100 uM) [1, 2]: 0.5341; Relative HLA MFI (10 uM) (HLA-B*5701): 0; Relative HLA MFI (100 uM) (HLA-B*5701): 0.004343

Q: What does the source list for AVDLSHFLK [ALK9]?
A: Relative HLA MFI (10 uM) (HLA-A*0301): 0.274; Relative HLA MFI (100 uM) (HLA-A*0301): 0.7814

Q: Which “Relative HLA MFI (10 uM)” value (HLA-A*0301) does the source give for AVFIHNFKRK [AK10] here?
A: 0.265

Q: What about the “Relative HLA MFI (100 uM)” value (HLA-A*0301) of the same sequence?
A: 1

Q: Which results are given for AVRHFPRIW [AW9]?
A: Relative HLA MFI (10 uM) (HLA-B*5701): 0.4343; Relative HLA MFI (100 uM) (HLA-B*5701): 0.7818

Q: ERILSTYLGR [ER10] was tested. Which “Relative HLA MFI (10 uM)” value (HLA-A*0301) did it give?
A: 0.09869

Q: What about the “Relative HLA MFI (100 uM)” value (HLA-A*0301) of the same sequence?
A: 0.5827

Q: For FPRIWLHGL [FL9 (Vpr)], which “Relative HLA MFI (10 uM)” value (HLA-B*0702) is on record?
A: 0.2812

Q: And the “Relative HLA MFI (100 uM)” value (HLA-B*0702)?
A: 0.7264

Q: FPVTPQVPL [FL9 (Nef)] was tested. Which “Relative HLA MFI (10 uM)” value (HLA-B*0702) did it give?
A: 0.348

Q: And the “Relative HLA MFI (100 uM)” value (HLA-B*0702)?
A: 0.9848

Q: With FPVTPQVPLR [FR10] as the sequence, how does the “Relative HLA MFI (10 uM)” value (HLA-B*0702) read?
A: 0.1079

Q: What about the “Relative HLA MFI (100 uM)” value (HLA-B*0702) of the same sequence?
A: 0.5897

Q: FSPEVIPMF [FF9] was tested. Which “Relative HLA MFI (10 uM)” value (HLA-B*5701) did it give?
A: 0.003257

Q: And the “Relative HLA MFI (100 uM)” value (HLA-B*5701)?
A: 0.02714

Q: What does the source list for GAFDLSFFL [GL9]?
A: Relative HLA MFI (10 uM) [1, 2]: 0.2773; Relative HLA MFI (100 uM) [1, 2]: 0.6097; Relative HLA MFI (10 uM) [1, 3]: 0.3886; Relative HLA MFI (100 uM) [1, 3]: 0.8634; Relative HLA MFI (10 uM) [1, 4]: 0.06703; Relative HLA MFI (100 uM) [1, 4]: 0.1423; Relative HLA MFI (10 uM) [1, 5]: 0.6524; Relative HLA MFI (100 uM) [1, 5]: 1; Relative HLA MFI (10 uM) (HLA-B*0702): 0.1155; Relative HLA MFI (100 uM) (HLA-B*0702): 0.2918

Q: For HMYISKKAK [HK9], which “Relative HLA MFI (10 uM)” value (HLA-A*0301) is on record?
A: 0.2644

Q: What about the “Relative HLA MFI (100 uM)” value (HLA-A*0301) of the same sequence?
A: 0.8145

Q: Which “Relative HLA MFI (10 uM)” value (HLA-B*0702) does the source give for HPRVSSEVHI [HI10] here?
A: 0.007599

Q: What about the “Relative HLA MFI (100 uM)” value (HLA-B*0702) of the same sequence?
A: 0.6565

Q: How did the “Relative HLA MFI (10 uM)” value [1, 6] turn out when HPVHAGPIA [HA9] was run?
A: 0.57

Q: And the “Relative HLA MFI (100 uM)” value [1, 6]?
A: 0.8723

Q: What about the “Relative HLA MFI (10 uM)” value (HLA-B*0702) of the same sequence?
A: 0.3541

Q: And the “Relative HLA MFI (100 uM)” value (HLA-B*0702)?
A: 0.8359

Q: Which “Relative HLA MFI (10 uM)” value (HLA-B*5701) does the source give for HTQGYFPDWQ [HQ10] here?
A: 0.03149

Q: And the “Relative HLA MFI (100 uM)” value (HLA-B*5701)?
A: 0.01629

Q: For IATESIVIW [IAW9], which “Relative HLA MFI (10 uM)” value (HLA-B*5701) is on record?
A: 0.4853

Q: What about the “Relative HLA MFI (100 uM)” value (HLA-B*5701) of the same sequence?
A: 1

Q: With IPRRIRQGL [IL9] as the sequence, how does the “Relative HLA MFI (10 uM)” value [1, 6] read?
A: 0.6542

Q: And the “Relative HLA MFI (100 uM)” value [1, 6]?
A: 0.68

Q: And the “Relative HLA MFI (10 uM)” value [1, 7]?
A: 0.518

Q: And the “Relative HLA MFI (100 uM)” value [1, 7]?
A: 0.8038

Q: What about the “Relative HLA MFI (10 uM)” value (HLA-B*0702) of the same sequence?
A: 0.3754

Q: And the “Relative HLA MFI (100 uM)” value (HLA-B*0702)?
A: 1

Q: For ISKKAKGWF [IF9], which “Relative HLA MFI (10 uM)” value (HLA-B*5701) is on record?
A: 0.4093

Q: And the “Relative HLA MFI (100 uM)” value (HLA-B*5701)?
A: 0.557

Q: With IVLPEKDSW [IW9 (RT)] as the sequence, how does the “Relative HLA MFI (10 uM)” value (HLA-B*5701) read?
A: 0.4821

Q: And the “Relative HLA MFI (100 uM)” value (HLA-B*5701)?
A: 0.7481

Q: Which “Relative HLA MFI (10 uM)” value (HLA-B*5701) does the source give for KAFSPEVI [KI8] here?
A: 0.06623

Q: And the “Relative HLA MFI (100 uM)” value (HLA-B*5701)?
A: 0.2215

Q: For KAIGTVLV [KV8], which “Relative HLA MFI (10 uM)” value (HLA-B*5701) is on record?
A: 0.05212

Q: What about the “Relative HLA MFI (100 uM)” value (HLA-B*5701) of the same sequence?
A: 0

Q: Which results are given for KTKPPLPSVKK [KK11]?
A: Relative HLA MFI (10 uM) (HLA-A*0301): 0.3455; Relative HLA MFI (100 uM) (HLA-A*0301): 0.9676

Q: How did the “Relative HLA MFI (10 uM)” value (HLA-B*5701) turn out when LGHGVSIEW [LW9] was run?
A: 0

Q: And the “Relative HLA MFI (100 uM)” value (HLA-B*5701)?
A: 0.005429

Q: What does the source list for LTFGWCFKL [LL9]?
A: Relative HLA MFI (10 uM) (HLA-B*5701): 0; Relative HLA MFI (100 uM) (HLA-B*5701): 0

Q: Which “Relative HLA MFI (10 uM)” value [1, 6] does the source give for NSSKVSQNY [NNY9] here?
A: 0.1772

Q: What about the “Relative HLA MFI (100 uM)” value [1, 6] of the same sequence?
A: 0.3643

Q: PLTFGWCYKL [PL10] was tested. Which “Relative HLA MFI (10 uM)” value [1, 2] did it give?
A: 0.1122

Q: What about the “Relative HLA MFI (100 uM)” value [1, 2] of the same sequence?
A: 0

Q: With PPIPVGDIY [PY9] as the sequence, how does the “Relative HLA MFI (10 uM)” value [1, 6] read?
A: 0.5376

Q: What about the “Relative HLA MFI (100 uM)” value [1, 6] of the same sequence?
A: 0.4339

Q: Which “Relative HLA MFI (10 uM)” value (HLA-B*5701) does the source give for QAVRIIKILY [QY10] here?
A: 0

Q: What about the “Relative HLA MFI (100 uM)” value (HLA-B*5701) of the same sequence?
A: 0

Q: For QELKNSAVSL [QL10], which “Relative HLA MFI (10 uM)” value [1, 7] is on record?
A: 0.2787

Q: And the “Relative HLA MFI (100 uM)” value [1, 7]?
A: 0.6638

Q: QTRVLAIERYL [QL11] was tested. Which “Relative HLA MFI (10 uM)” value [1, 8] did it give?
A: 0.2179

Q: And the “Relative HLA MFI (100 uM)” value [1, 8]?
A: 0.3514
